Test results published in patent US5164370A, “Peptide analogues of insulin-like growth factor 1 (IGF-1) or factor 2 (IGF-2)” (Gropep Pty. Ltd., priority 1987, dated 1992).
Where no end group is shown, it is not given here.

Legend:
purified binding protein = experiment: competition for binding of labelled human/bovine/porcine IGF-1 to purified binding protein; details: competition with labelled human/bovine/porcine IGF-1
Source text: This apparent discrepancy is caused by the myoblasts producing a binding protein in addition to the receptor. This binding protein selectively binds those IGF-1 peptides that have a glutamic acid residue at position 3 from the N-terminal, thus preventing the peptide binding to the cell receptor. This interpretation is established by the following results [determined by the method of Martin and Baxter, J. Biol, Chem. 261: 8754-8760, (1986)] with purified binding proteins (see Table 2).

L6 myoblasts = experiment: incorporation of 3H-labelled leucine into total cell protein of L6 myoblasts (protein synthesis bioassay); type: cell-based; details: for Concentration (percent of that required to give a half-response with hIGF-1): hIGF-1 half-response 12 ng/ml = 100, lower = more potent
Source text: Bioassays of purified synthetic peptides have been compared with pure human/bovine/porcine IGF-1. The assays involve the incorporation of 3H-labelled leucine into the total cell protein of L6 myoblasts as described by Francis et al. (Biochem. J. 233:207-213, 1986).

Substance | Potency for binding to the protein where hIGF-1 = 100% (purified binding protein) | Concentration (percent of that required to give a half-response with hIGF-1) (L6 myoblasts) | concentration required to give a half-response (L6 myoblasts; 3H-leucine incorporation)
Gly--Pro--Arg--Thr--Leu--Cys--: IGF-1 analogue: glutamic acid at position 3 substituted with arginine (GPRTLC; not fully specified (C-terminus); printed as Gly—Pro—Arg—Thr—Leu—Cys—; ends and bridges not checked; also: N-terminal part of IGF-1 analogue, rest of chain not shown) | < 0.1% | 5% | –
Gly--Pro--Gln--Thr--Leu--Cys--: IGF-1 analogue: glutamic acid at position 3 substituted with glutamine (GPQTLC; not fully specified (C-terminus); printed as Gly—Pro—Gln—Thr—Leu—Cys—; ends and bridges not checked; also: N-terminal part of IGF-1 analogue, rest of chain not shown) | 1.0% | 18% | –
Gly--Pro--Glu--Thr--Leu--Cys--: pure human/bovine/porcine insulin-like growth factor-1, full 70-residue sequence (b3) (GPETLC; not fully specified (C-terminus); ends and bridges not checked; also: N-terminal part of IGF-1, rest of chain not shown) [reference compound] | 100% | 100% | 12 ng/mL
Gly--Pro--Gly--Arg--Leu--Cys--: IGF-1 analogue: glutamic acid 3 substituted with glycine and threonine 4 with arginine (GPGRLC; not fully specified (C-terminus); printed as Gly—Pro—Gly—Arg—Leu—Cys—; ends and bridges not checked; also: N-terminal part of IGF-1 analogue, rest of chain not shown) | < 0.1% | 4% | –
Gly--Pro--Gly--Gly--Leu--Cys--: IGF-1 analogue: glutamic acid 3 substituted with glycine and threonine 4 with glycine (GPGGLC; not fully specified (C-terminus); printed as Gly—Pro—Gly—Gly—Leu—Cys—; ends and bridges not checked; also: N-terminal part of IGF-1 analogue, rest of chain not shown) | 0.1% | 14% | –
Gly--Pro--Gly--Thr--Leu--Cys--: IGF-1 analogue: glutamic acid at position 3 substituted with glycine (GPGTLC; not fully specified (C-terminus); printed as Gly—Pro—Gly—Thr—Leu—Cys—; ends and bridges not checked; also: N-terminal part of IGF-1 analogue, rest of chain not shown) | 0.5% | 12% | –
Gly--Pro--Leu--Thr--Leu--Cys--: IGF-1 analogue: glutamic acid at position 3 substituted with leucine (GPLTLC; not fully specified (C-terminus); printed as Gly—Pro—Leu—Thr—Leu—Cys—; ends and bridges not checked; also: N-terminal part of IGF-1 analogue, rest of chain not shown) | 0.5% | 18% | –
Gly--Pro--Lys--Thr--Leu--Cys--: IGF-1 analogue: glutamic acid at position 3 substituted with lysine (GPKTLC; not fully specified (C-terminus); printed as Gly—Pro—Lys—Thr—Leu—Cys—; ends and bridges not checked; also: N-terminal part of IGF-1 analogue, rest of chain not shown) | 0.1% | 11% | –
Gly--Thr--Leu--Cys--: IGF-1 analogue: Gly, Pro removed and glutamic acid substituted with glycine (GTLC; not fully specified (C-terminus); printed as Gly—Thr—Leu—Cys—; ends and bridges not checked; also: N-terminal part of IGF-1 analogue, rest of chain not shown) | 1.0% | 16% | –
